According to patent US20220363665A1, “QUINOLINE COMPOUNDS FOR THE TREATMENT OF AUTOIMMUNE DISEASE” (Hoffmann-La Roche Inc., priority 2019, published 2022):

Target: T1, human TLR8 (Homo sapiens, UniProt Q9NR97)
T1 construct: host or cells: HEK293 (HEK-Blue hTLR8)
T1 sequence (Q9NR97 27-1041): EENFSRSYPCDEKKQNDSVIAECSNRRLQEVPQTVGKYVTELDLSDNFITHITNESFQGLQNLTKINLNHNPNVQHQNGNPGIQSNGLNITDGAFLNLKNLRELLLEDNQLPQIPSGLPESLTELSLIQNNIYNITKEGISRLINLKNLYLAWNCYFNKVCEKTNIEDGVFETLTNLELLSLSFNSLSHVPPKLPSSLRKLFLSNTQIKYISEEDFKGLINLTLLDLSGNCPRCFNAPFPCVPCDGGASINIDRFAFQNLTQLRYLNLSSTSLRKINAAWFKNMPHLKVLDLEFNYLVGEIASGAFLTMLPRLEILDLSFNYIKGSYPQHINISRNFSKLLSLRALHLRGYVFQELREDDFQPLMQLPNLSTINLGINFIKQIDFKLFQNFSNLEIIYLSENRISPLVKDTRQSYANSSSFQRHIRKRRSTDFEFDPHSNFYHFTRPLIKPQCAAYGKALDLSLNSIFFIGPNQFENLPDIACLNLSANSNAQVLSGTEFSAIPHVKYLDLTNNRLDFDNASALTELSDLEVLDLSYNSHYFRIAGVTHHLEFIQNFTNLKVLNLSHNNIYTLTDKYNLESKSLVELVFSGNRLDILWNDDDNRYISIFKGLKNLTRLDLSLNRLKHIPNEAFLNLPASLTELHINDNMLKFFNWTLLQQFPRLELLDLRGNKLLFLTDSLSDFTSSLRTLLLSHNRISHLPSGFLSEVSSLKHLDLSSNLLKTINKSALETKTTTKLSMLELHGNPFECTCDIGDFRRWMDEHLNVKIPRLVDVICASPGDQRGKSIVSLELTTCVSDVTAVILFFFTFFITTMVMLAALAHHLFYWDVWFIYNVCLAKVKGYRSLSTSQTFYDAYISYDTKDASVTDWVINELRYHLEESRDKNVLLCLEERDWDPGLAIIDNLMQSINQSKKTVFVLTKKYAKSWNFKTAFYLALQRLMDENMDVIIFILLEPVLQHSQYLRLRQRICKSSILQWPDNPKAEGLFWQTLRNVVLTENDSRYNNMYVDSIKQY
Test: HEK293-Blue-hTLR-8 cells assay (SEAP reporter, R848 stimulation)
Type: cell-based
Conditions: HEK293-Blue-hTLR8 cells, R848, 20 hrs
Protocol: The following tests were carried out in order to determine the activity of the compounds of formula (I) in HEK293-Blue-hTLR-7/8/9 cells assay.
HEK293-Blue-hTLR-8 Cells Assay:
A stable HEK293-Blue-hTLR-8 cell line was purchased from InvivoGen (Cat. #: hkb-htlr8, San Diego, Calif., USA). These cells were originally designed for studying the stimulation of human TLR8 by monitoring the activation of NF-κB. A SEAP (secreted embryonic alkaline phosphatase) reporter gene was placed under the control of the IFN-β minimal promoter fused to five NF-κB and AP-1-binding sites. The SEAP was induced by activating NF-κB and AP-1 via stimulating HEK-Blue hTLR8 cells with TLR8 ligands. Therefore the reporter expression was declined by TLR8 antagonist under the stimulation of a ligand, such as R848, for incubation of 20 hrs. The cell culture supernatant SEAP reporter activity was determined using QUANTI-Blue™ kit (Cat #. rep-qbl, Invivogen, San Diego, Calif., USA) at a wavelength of 640 nm, a detection medium that turns purple or blue in the presence of alkaline phosphatase.
HEK293-Blue-hTLR8 cells were incubated at a density of 250,000˜450,000 cells/mL in a volume of 170 μL in a 96-well plate in Dulbecco's Modified Eagle's medium (DMEM) containing 4.5 g/L glucose, 50 U/mL penicillin, […], […], 2 mM L-glutamine, 10% (v/v) heat-inactivated fetal bovine serum with addition of 20 μL test compound in a serial dilution in the presence of final DMSO at 1% and 10 μL of 60 μM R848 in above DMEM, perform incubation under 37° C. in a CO2 incubator for 20 hrs. Then 20 μL of the supernatant from each well was incubated with 180 μL Quanti-blue substrate solution at 37° C. for 2 hrs and the absorbance was read at 620˜655 nm using a spectrophotometer. The signalling pathway that TLR8 activation leads to downstream NF-KB activation has been widely accepted, and therefore similar reporter assay was modified for evaluating TLR8 antagonist.

IC50: < 3 nM
SMILES: C[C@@H]1CN(c2ccc(C(F)(F)F)c3ncccc23)C[C@H](C(=O)NCC2CNCCO2)O1 (stereo partly drawn) [Example 48, (2R,6R)-6-methyl-N-(morpholin-2-ylmethyl)-4-[8-(trifluoromethyl)-5-quinolyl]morpholine-2-carboxamide]
